# Assay results reported in patent US5502068A, “Cyclopropylpyrroloindole-oligopeptide anticancer agents” (Synphar Laboratories, Inc., priority 1995, dated 1996).
# Entries after “also recorded” stand apart in the source; their conditions may differ. Like-named read-outs stand apart in the source and are kept apart here.
# Legend:
# [1] = test system: KB human nasopharyngeal carcinoma cells; test: Cytotoxicity (antiproliferative effect), crystal violet staining; type: cell-based; settings: Homo sapiens, KB, 72 h
# Experimental: KB human nasopharyngeal carcinoma cells, were maintained in RPMI 1640 medium supplemented with 10% fetal bovine serum. KB cells were cultured in plastic tissue culture flasks and kept in an incubator at 37° C. in humidified air containing 5% CO2. These cells were free of Mycoplasma as determined with Hoechst 33258 stain.
# The antiproliferative effect of compounds was determined using cell staining method by crystal violet.
# One hundred-μ1 cultures were established at 10^3 cells/well in 96-well tissue culture plates (Nunc, Roskilde, Denmark). After 24 h. 100 µl of the medium containing 2 times concentrated the compounds were added to the cell culture. After an additional 3 days culture, cells were fixed to 20 µl of 25% glutaraldehyde for 15 minutes and washed with water, dried and stained with 0.05% crystal violet in 20% methanol for 15 minutes. After washing with water and drying, crystal violet was extracted with 100 µl of 50 mM NaH2 PO4 /ethanol (1:1 v/v) and OD540 was measured by the multiscanphotometer (Corona, Tokyo, Japan). A linear relationship between cell number and the amount of dye binding was found over the range of cell densities observed all experiments.
# [2] = test system: P388 lymphocytic leukemia cells; test: Antitumor efficacy, i.p. P388 lymphocytic leukemia in CDF1 mice; type: in vivo, mouse; settings: for In vivo ILS P388 (ip): maximum ILS
# Experimental: All compounds were dissolved in dimethyl sulfoxide (DMSO), diluted in sterile 0.9% NaCl solution to 5% final DMSO concentration. BALB/c X DBA/2F1 (CDF1) mice were purchased from Japan CLEA. P388 lymphocytic leukemia cells were inoculated intraperitoneally (10^6 cells) 1 day prior to treatment into 6 week-old male CDF1 mice, and compounds were injected intraperitoneally in a total volume of 0.1 ml/10g mouse body weight. Efficacy for these models was expressed as the Increase in life span (ILS) of treated mice in comparison to untreated tumor-bearing mice. Experiment was completed on day 30 after tumor inoculation, and survivor on that day was evaluated as cured animal. Time to death (mean±SD.n=9) for untreated animals was 11.5±1.2 day and for solvent treated animals was 11.7±2.1 day.
# DNA [3] = test: Site and sequence selective DNA alkylation by polyacrylamide gel electrophoresis (PAGE); type: biochemical; settings: for Alkylation Intensity at AATA*: site AATA*; for Alkylation Intensity at ATAA*: site ATAA*; for Alkylation Intensity at CTTA: site CTTA; for Alkylation Intensity at GAAA: site GAAA; for Alkylation Intensity at GATA*: site GATA*; for Alkylation Intensity at GTTA: site GTTA; for Alkylation Intensity at TATA: site TATA; for Alkylation Intensity at TTAA*: site TTAA*; for Alkylation Intensity at TTTA: site TTTA
# Text: In contrast to FCE 24517, clear evidence of site and sequence selective DNA alkylation was obtained for the new CPI-oligopeptides by polyacrylamide gel electrophoresis (PAGE). […] Table 5 quantifies and compares the alkylation intensities at different sites for the CPI-oligopeptides with CC-1065. […] A detailed analysis of the frequency of occurrence of bases flanking the prominent alkylation sites for YW-052 and YW-053 compared with CC-1065 is given in Table 7.
# DNA [4] = settings: in words, cited from earlier work
# [5] = clinical applications/usage; in words; cited from earlier work
# [6] = Table 4, KB cell, read-out: Cytotoxicity IC50 (KB cell)
# [7] = Table 1, KB cells, 3 days, read-out: KB cells, toxicity TD50
# [8] = Table 3, KB cells, 3 days, read-out: KB cells, toxicity TD50
compound,measurement,setting,value
CCCC(=O)Nc1cc(C(=O)N2CC3CC34C2=CC(=O)c2[nH]cc(C)c24)n(C)c1 (centres unmarked) [YW-036],IC50,[1]; [6],0.47 ng/mL
same,In vivo ILS P388 (ip),"[2]; 0.3 mg/kg ip, 30 day survivors not included",24.6%
same,cure,"[2]; 0.3 mg/kg ip, survivors on day 30 evaluated as cured",1/7
Cc1c[nH]c2c1C13CC1CN(C(=O)C=Cc1cccn1C)C3=CC2=O (centres unmarked) [YW-034],IC50,[1]; [7],0.275 ng/mL
same,IC50,[1]; [6],0.27 ng/mL
same,In vivo ILS P388 (ip),[2]; 1 mg/kg ip,37.9%
same,Alkylation Intensity at AATA*,DNA [3],1.30
same,Alkylation Intensity at ATAA*,DNA [3]; first column of Table 5,.71
same,Alkylation Intensity at ATAA*,DNA [3]; third column of Table 5,.84
same,Alkylation Intensity at CTTA,DNA [3],.44
same,Alkylation Intensity at GAAA,DNA [3],.55
same,Alkylation Intensity at GATA*,DNA [3],1.09
same,Alkylation Intensity at GTTA,DNA [3],.73
same,Alkylation Intensity at TATA,DNA [3],.77
same,Alkylation Intensity at TTAA*,DNA [3],.52
same,Alkylation Intensity at TTTA,DNA [3],.49
Cc1c[nH]c2c1C13CC1CN(C(=O)c1cc(NC(=O)c4cc(NC(=O)c5cc(NC(=O)CCN(C)C)cn5C)cn4C)cn1C)C3=CC2=O (centres unmarked) [YW-62],IC50,[1]; [8],1370 ng/mL
Cc1c[nH]c2c1C13CC1CN(C(=O)c1cc(NC(=O)CCN(C)C)cn1C)C3=CC2=O (centres unmarked) [YW-60],IC50,[1]; [8],184 ng/mL
CCC(=O)Nc1cc(C(=O)N2CC3CC34C2=CC(=O)c2[nH]cc(C)c24)n(C)c1 (centres unmarked) [YW-035],IC50,[1]; [6],1 ng/mL
same,In vivo ILS P388 (ip),[2]; 0.1 mg/kg ip,56.5%
CC(=O)Nc1cc(C(=O)N2CC3CC34C2=CC(=O)c2[nH]cc(C)c24)n(C)c1 (centres unmarked) [YW-031],IC50,[1]; [7],0.0324 ng/mL
"COc1c(O)c2c(c3cc(C(=O)N4CCc5c4c(O)c(OC)c4[nH]c(C(=O)N6CC7CC78C6=CC(=O)c6[nH]cc(C)c68)cc54)[nH]c13)CCN2C(N)=O (centres unmarked) [CC-1065, reference compound]",IC50,"[1]; Table 2, KB cells, 3 days, read-out: KB cells, toxicity TD50",0.001 ng/mL
same,"Frequency of Occurrence, base A at +1","DNA [3]; A, position +1",30%
same,"Frequency of Occurrence, base A at +2","DNA [3]; A, position +2",30%
same,"Frequency of Occurrence, base A at +3","DNA [3]; A, position +3",20%
same,"Frequency of Occurrence, base A at -1","DNA [3]; A, position -1",40%
same,"Frequency of Occurrence, base A at -2","DNA [3]; A, position -2",40%
same,"Frequency of Occurrence, base A at -3","DNA [3]; A, position -3",30%
same,"Frequency of Occurrence, A/T at +1","DNA [3]; A/T, position +1",80%
same,"Frequency of Occurrence, A/T at +2","DNA [3]; A/T, position +2",60%
same,"Frequency of Occurrence, A/T at +3","DNA [3]; A/T, position +3",50%
same,"Frequency of Occurrence, A/T at -1","DNA [3]; A/T, position -1",100%
same,"Frequency of Occurrence, A/T at -2","DNA [3]; A/T, position -2",100%
same,"Frequency of Occurrence, A/T at -3","DNA [3]; A/T, position -3",60%
same,"Frequency of Occurrence, base C at +3","DNA [3]; C, position +3",10%
same,"Frequency of Occurrence, base C at -3","DNA [3]; C, position -3",30%
same,"Frequency of Occurrence, base G at +1","DNA [3]; G, position +1",20%
same,"Frequency of Occurrence, base G at +2","DNA [3]; G, position +2",40%
same,"Frequency of Occurrence, base G at +3","DNA [3]; G, position +3",40%
same,"Frequency of Occurrence, base G at -3","DNA [3]; G, position -3",10%
same,DNA alkylation,"DNA [3]; PAGE, in words",alkylate DNA strongly
same,"Frequency of Occurrence, base T at +1","DNA [3]; T, position +1",50%
same,"Frequency of Occurrence, base T at +2","DNA [3]; T, position +2",30%
same,"Frequency of Occurrence, base T at +3","DNA [3]; T, position +3",30%
same,"Frequency of Occurrence, base T at -1","DNA [3]; T, position -1",60%
same,"Frequency of Occurrence, base T at -2","DNA [3]; T, position -2",60%
same,"Frequency of Occurrence, base T at -3","DNA [3]; T, position -3",30%
same,"Frequency of Occurrence, A* (site of alkylation)",DNA [3]; alkylated base A*,100%
same,"Frequency of Occurrence, G* (site of alkylation)",DNA [3]; alkylated base G*,0%
same,"Alkylation Sites (5'-3'), Moderate",DNA [3]; moderate sites,"TATA, TTAA, GTTA; also recorded: CTTA, GGAA"
same,Alkylation Intensity at AATA*,DNA [3],1.08
same,Alkylation Intensity at ATAA*,DNA [3]; first column of Table 5,1.47
same,Alkylation Intensity at ATAA*,DNA [3]; third column of Table 5,.96
same,Alkylation Intensity at CTTA,DNA [3],.61
same,Alkylation Intensity at GAAA,DNA [3],.35
same,Alkylation Intensity at GATA*,DNA [3],.80
same,Alkylation Intensity at GTTA,DNA [3],1.20
same,Alkylation Intensity at TATA,DNA [3],1.02
same,Alkylation Intensity at TTAA*,DNA [3],.80
same,Alkylation Intensity at TTTA,DNA [3],1.09
same,"Alkylation Sites (5'-3'), Strong",DNA [3]; strong sites,"TTTA, GATA, ATAA; also recorded: AATA, ATAA"
same,DNA sequence recognition,DNA [4],strictly AT recognizing; also recorded: strictly limited AATT recognition
same,toxicity (delayed death syndrome),[5],too toxic for clinical applications because of the delayed death syndrome; also recorded: too toxic for clinical usage
Cn1cc(NC(=O)c2cc(NC(=O)c3cc(NC(=O)c4ccc(N(CCCl)CCCl)cc4)cn3C)cn2C)cc1C(=O)NCCC(=N)N [FCE 24517],DNA alkylation,"DNA [4]; Arcamone et al., 1989",shows no evidence of DNA alkylation
same,DNA sequence recognition,DNA [4],strictly AT recognizing; also recorded: strictly limited AATT recognition
